Measurements reported in the NIST ThermoML archive (doi:10.1016/j.jct.2019.04.023).

Experiment: xn = mol fraction of the nth substance listed
Conditions: 101 kPa, Liquid; for viscosity: Falling or rolling sphere viscometry; for mass density: Vibrating tube method

CC[N+](CC)=C(N(C)C)N(C)C.O=S(=O)([N-]S(=O)(=O)C(F)(F)F)C(F)(F)F + CCO
Conditions | mass density [kg/m3] | viscosity [mPa·s]
293.15 K, x1 = 0.0995 | 1018.97 | 2.764
293.15 K, x1 = 0.1987 | 1136.2 | 5.261
293.15 K, x1 = 0.299 | 1207.9 | 9.359
293.15 K, x1 = 0.3991 | 1256.11 | 13.81
293.15 K, x1 = 0.5075 | 1293.66 | 20.03
293.15 K, x1 = 0.5956 | 1316.86 | 26.34
293.15 K, x1 = 0.7065 | 1339.41 | 36.42
293.15 K, x1 = 0.7983 | 1353.71 | 47.01
293.15 K, x1 = 0.9106 | 1367.67 | 62.04
293.15 K, x1 = 0.951 | 1372.2 | 70.47
293.15 K, x1 = 1 | 1377.86 | 81.02
298.15 K, x1 = 0.0995 | 1014.27 | 2.453
298.15 K, x1 = 0.1987 | 1131.43 | 4.596
298.15 K, x1 = 0.299 | 1203.13 | 8.052
298.15 K, x1 = 0.3991 | 1251.35 | 11.82
298.15 K, x1 = 0.5075 | 1288.9 | 16.96
298.15 K, x1 = 0.5956 | 1312.11 | 22.12
298.15 K, x1 = 0.7065 | 1334.68 | 30.22
298.15 K, x1 = 0.7983 | 1348.98 | 38.69
298.15 K, x1 = 0.9106 | 1362.96 | 50.44
298.15 K, x1 = 0.951 | 1367.5 | 56.94
298.15 K, x1 = 1 | 1373.16 | 65.01
303.15 K, x1 = 0.0995 | 1009.56 | 2.19
303.15 K, x1 = 0.1987 | 1126.67 | 4.044
303.15 K, x1 = 0.299 | 1198.38 | 6.99
303.15 K, x1 = 0.3991 | 1246.63 | 10.23
303.15 K, x1 = 0.5075 | 1284.19 | 14.53
303.15 K, x1 = 0.5956 | 1307.39 | 18.83
303.15 K, x1 = 0.7065 | 1329.99 | 25.47
303.15 K, x1 = 0.7983 | 1344.3 | 32.25
303.15 K, x1 = 0.9106 | 1358.3 | 41.52
303.15 K, x1 = 0.951 | 1362.85 | 46.62
303.15 K, x1 = 1 | 1368.51 | 52.96
308.15 K, x1 = 0.0995 | 1004.84 | 1.964
308.15 K, x1 = 0.1987 | 1121.91 | 3.583
308.15 K, x1 = 0.299 | 1193.62 | 6.102
308.15 K, x1 = 0.3991 | 1241.9 | 8.914
308.15 K, x1 = 0.5075 | 1279.48 | 12.57
308.15 K, x1 = 0.5956 | 1302.7 | 16.19
308.15 K, x1 = 0.7065 | 1325.33 | 21.69
308.15 K, x1 = 0.7983 | 1339.66 | 27.29
308.15 K, x1 = 0.9106 | 1353.68 | 34.83
308.15 K, x1 = 0.951 | 1358.24 | 38.87
308.15 K, x1 = 1 | 1363.9 | 43.84
313.15 K, x1 = 0.0995 | 1000.1 | 1.773
313.15 K, x1 = 0.1987 | 1117.13 | 3.195
313.15 K, x1 = 0.299 | 1188.87 | 5.364
313.15 K, x1 = 0.3991 | 1237.18 | 7.841
313.15 K, x1 = 0.5075 | 1274.79 | 10.98
313.15 K, x1 = 0.5956 | 1298.03 | 14.08
313.15 K, x1 = 0.7065 | 1320.7 | 18.73
313.15 K, x1 = 0.7983 | 1335.04 | 23.34
313.15 K, x1 = 0.9106 | 1349.09 | 29.46
313.15 K, x1 = 0.951 | 1353.66 | 32.73
313.15 K, x1 = 1 | 1359.32 | 36.79
318.15 K, x1 = 0.0995 | 995.32 | 1.606
318.15 K, x1 = 0.1987 | 1112.33 | 2.864
318.15 K, x1 = 0.299 | 1184.11 | 4.758
318.15 K, x1 = 0.3991 | 1232.46 | 6.927
318.15 K, x1 = 0.5075 | 1270.1 | 9.662
318.15 K, x1 = 0.5956 | 1293.36 | 12.36
318.15 K, x1 = 0.7065 | 1316.07 | 16.3
318.15 K, x1 = 0.7983 | 1330.44 | 20.16
318.15 K, x1 = 0.9106 | 1344.52 | 25.22
318.15 K, x1 = 0.951 | 1349.1 | 27.9
318.15 K, x1 = 1 | 1354.76 | 31.25
323.15 K, x1 = 0.0995 | 990.51 | 1.463
323.15 K, x1 = 0.1987 | 1107.51 | 2.585
323.15 K, x1 = 0.299 | 1179.33 | 4.253
323.15 K, x1 = 0.3991 | 1227.73 | 6.158
323.15 K, x1 = 0.5075 | 1265.41 | 8.555
323.15 K, x1 = 0.5956 | 1288.7 | 10.91
323.15 K, x1 = 0.7065 | 1311.45 | 14.31
323.15 K, x1 = 0.7983 | 1325.84 | 17.59
323.15 K, x1 = 0.9106 | 1339.96 | 21.82
323.15 K, x1 = 0.951 | 1344.55 | 24.03
323.15 K, x1 = 1 | 1350.21 | 26.79

CC[N+](CC)=C(N(C)C)N(C)C.O=S(=O)([N-]S(=O)(=O)C(F)(F)F)C(F)(F)F + CO
Conditions | mass density [kg/m3] | viscosity [mPa·s]
293.15 K, x1 = 0.0999 | 1073.55 | 1.848
293.15 K, x1 = 0.1984 | 1186.61 | 4.046
293.15 K, x1 = 0.3011 | 1249.9 | 7.913
293.15 K, x1 = 0.4008 | 1288.15 | 13.15
293.15 K, x1 = 0.5055 | 1315.68 | 19.75
293.15 K, x1 = 0.5916 | 1332.42 | 26.14
293.15 K, x1 = 0.712 | 1350.19 | 37.44
293.15 K, x1 = 0.7994 | 1360.11 | 46.94
293.15 K, x1 = 0.8995 | 1369.61 | 61.78
293.15 K, x1 = 1 | 1377.86 | 81.02
298.15 K, x1 = 0.0999 | 1068.63 | 1.685
298.15 K, x1 = 0.1984 | 1181.69 | 3.569
298.15 K, x1 = 0.3011 | 1245.05 | 6.875
298.15 K, x1 = 0.4008 | 1283.31 | 11.36
298.15 K, x1 = 0.5055 | 1310.86 | 16.81
298.15 K, x1 = 0.5916 | 1327.63 | 22.03
298.15 K, x1 = 0.712 | 1345.44 | 30.94
298.15 K, x1 = 0.7994 | 1355.37 | 38.51
298.15 K, x1 = 0.8995 | 1364.9 | 49.75
298.15 K, x1 = 1 | 1373.16 | 65.01
303.15 K, x1 = 0.0999 | 1063.71 | 1.538
303.15 K, x1 = 0.1984 | 1176.79 | 3.198
303.15 K, x1 = 0.3011 | 1240.23 | 6.03
303.15 K, x1 = 0.4008 | 1278.51 | 9.842
303.15 K, x1 = 0.5055 | 1306.08 | 14.47
303.15 K, x1 = 0.5916 | 1322.88 | 18.78
303.15 K, x1 = 0.712 | 1340.73 | 26.03
303.15 K, x1 = 0.7994 | 1350.68 | 32.26
303.15 K, x1 = 0.8995 | 1360.23 | 41.13
303.15 K, x1 = 1 | 1368.51 | 52.96
308.15 K, x1 = 0.0999 | 1058.79 | 1.413
308.15 K, x1 = 0.1984 | 1171.9 | 2.949
308.15 K, x1 = 0.3011 | 1235.43 | 5.332
308.15 K, x1 = 0.4008 | 1273.73 | 8.651
308.15 K, x1 = 0.5055 | 1301.33 | 12.59
308.15 K, x1 = 0.5916 | 1318.16 | 16.22
308.15 K, x1 = 0.712 | 1336.05 | 22.2
308.15 K, x1 = 0.7994 | 1346.03 | 27.19
308.15 K, x1 = 0.8995 | 1355.6 | 34.31
308.15 K, x1 = 1 | 1363.9 | 43.84
313.15 K, x1 = 0.0999 | 1053.86 | 1.296
313.15 K, x1 = 0.1984 | 1167.01 | 2.613
313.15 K, x1 = 0.3011 | 1230.63 | 4.749
313.15 K, x1 = 0.4008 | 1268.96 | 7.645
313.15 K, x1 = 0.5055 | 1296.6 | 11.05
313.15 K, x1 = 0.5916 | 1313.46 | 14.12
313.15 K, x1 = 0.712 | 1331.4 | 19.15
313.15 K, x1 = 0.7994 | 1341.4 | 23.25
313.15 K, x1 = 0.8995 | 1351 | 29.05
313.15 K, x1 = 1 | 1359.32 | 36.79
318.15 K, x1 = 0.0999 | 1048.89 | 1.2
318.15 K, x1 = 0.1984 | 1162.1 | 2.362
318.15 K, x1 = 0.3011 | 1225.81 | 4.261
318.15 K, x1 = 0.4008 | 1264.19 | 6.815
318.15 K, x1 = 0.5055 | 1291.87 | 9.775
318.15 K, x1 = 0.5916 | 1308.77 | 12.43
318.15 K, x1 = 0.712 | 1326.77 | 16.69
318.15 K, x1 = 0.7994 | 1336.79 | 20.12
318.15 K, x1 = 0.8995 | 1346.42 | 24.89
318.15 K, x1 = 1 | 1354.76 | 31.25
323.15 K, x1 = 0.0999 | 1043.89 | 1.114
323.15 K, x1 = 0.1984 | 1157.19 | 2.157
323.15 K, x1 = 0.3011 | 1221 | 3.854
323.15 K, x1 = 0.4008 | 1259.42 | 6.126
323.15 K, x1 = 0.5055 | 1287.15 | 8.704
323.15 K, x1 = 0.5916 | 1304.09 | 10.98
323.15 K, x1 = 0.712 | 1322.14 | 14.66
323.15 K, x1 = 0.7994 | 1332.18 | 17.56
323.15 K, x1 = 0.8995 | 1341.85 | 21.56
323.15 K, x1 = 1 | 1350.21 | 26.79
